{
  "source": "patent US7910584B2",
  "about": "“3-spiroindolin-2-one derivatives, preparation and therapeutic use thereof” (Sanofi-Aventis, priority 2004, dated 2011)",
  "biological_target": "T1, recombinant human vasopressin V2 receptors (Homo sapiens, UniProt P30518)",
  "T1 construct": "expressed in transfected cells; host or cells: CHO cell line (plasma membranes)",
  "T1 sequence (P30518 whole entry)": "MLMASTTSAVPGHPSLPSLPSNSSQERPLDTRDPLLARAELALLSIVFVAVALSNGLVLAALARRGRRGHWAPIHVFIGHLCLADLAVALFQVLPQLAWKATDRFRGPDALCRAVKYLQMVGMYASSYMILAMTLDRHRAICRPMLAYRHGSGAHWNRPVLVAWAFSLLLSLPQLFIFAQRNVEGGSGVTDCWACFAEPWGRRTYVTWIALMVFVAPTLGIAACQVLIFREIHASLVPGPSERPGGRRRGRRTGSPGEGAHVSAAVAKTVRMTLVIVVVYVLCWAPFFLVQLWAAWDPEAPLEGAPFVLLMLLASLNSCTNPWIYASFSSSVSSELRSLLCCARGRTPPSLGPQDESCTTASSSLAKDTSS",
  "assay": "In vitro binding assay, [3H]-AVP displacement on plasma membranes",
  "settings": "membranes from tissues or CHO cell line expressing recombinant human V2 receptors; 3.5 nM [H3]-AVP; 45 minutes at 25° C.; read-out: IC50 (concentration of product that inhibits 50% of the specific binding)",
  "method": "They were in particular tested with regard to their effects.\nThe affinity of the compounds of the invention for vasopressin V2 receptors was measured in in vitro binding assays, as described in J. Pharmacol. Exp. Ther., (2002), 300, pp. 1122-1130.\nPlasma membranes (approximately 20 μg/ml) originating from tissues or the CHO cell line expressing recombinant human vasopressin V2 receptors are incubated for 45 minutes at 25° C. in 200 μl of TRIS-HCl buffer (50 mM; pH 8.2) containing 2 mM of MgCl2, 1 mM of EDTA, 0.1% of BSA, 1 mg/ml of bacitracin and 3.5 nM of [H^3]-AVP. The reaction is stopped by filtration and washing over GF/B filters. The nonspecific binding is determined in the presence of 1 μM of AVP. The compounds of the invention, dissolved beforehand at the concentration of 10^−2 M in DMSO, are tested in a dilution range.\nFor each concentration, the results are expressed as percentage inhibition of specific binding. An IC50 (concentration of product that inhibits 50% of the specific binding) is determined for each of the products using the “RS1 binding” program (BBN Domain, Cambridge, Mass.).",
  "data": [
    {"molecule": "CCOc1ccc2c(c1)C1(CCC(OCCN3CCOCC3=O)CC1)C(=O)N2S(=O)(=O)c1ccc(C(=O)NC(C)(C)C)cc1OC", "note": "(stereo not shown)", "values": [
      {"measurement": "IC50", "result": "~7.3", "unit": "nM"}
    ]}
  ]
}
